Measured values as given in ChEMBL document CHEMBL1201862, “PubChem BioAssay data set” (2004).
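48-hour exposure; five concentrations; linearly interpolated endpoints. GI50 = concentration required for 50% inhibition of growth.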 Active and inactive are the calls of the source. No stated cut-off is given here; in the data, active = GI50 up to about 1.1 µM and inactive = higher.

How the values were obtained:
Test in all cases: growth of human tumour cells (NCI), 48 h
DU-145 = system: DU-145
MOLT-4 = system: MOLT-4
NCI-H522 = system: NCI-H522
ACHN = system: ACHN
SNB-75 = system: SNB-75
HOP-62 = system: HOP-62
SK-MEL-5 = system: SK-MEL-5
MDA-MB-231 = system: MDA-MB-231
MDA-MB-435 = system: MDA-MB-435
SNB-19 = system: SNB-19
Malme-3M = system: Malme-3M
OVCAR-4 = system: OVCAR-4
HCC 2998 = system: HCC 2998
RPMI-8226 = system: RPMI-8226
SK-OV-3 = system: SK-OV-3
HOP-92 = system: HOP-92
786-0 = system: 786-0
TK-10 = system: TK-10
MCF7 = system: MCF7
SF-295 = system: SF-295
Hs-578T = system: Hs-578T
BT-549 = system: BT-549
HCT-15 = system: HCT-15
COLO 205 = system: COLO 205
K562 = system: K562
SF-539 = system: SF-539
HCT-116 = system: HCT-116
NCI-H23 = system: NCI-H23
EKVX = system: EKVX
SK-MEL-2 = system: SK-MEL-2
CCRF-CEM = system: CCRF-CEM
UACC-62 = system: UACC-62
KM12 = system: KM12
IGROV-1 = system: IGROV-1
OVCAR-8 = system: OVCAR-8
NCI/ADR-RES = system: NCI/ADR-RES
NCI-H226 = system: NCI-H226
SN12C = system: SN12C
UACC-257 = system: UACC-257
HL-60 = system: HL-60
HT-29 = system: HT-29
NCI-H460 = system: NCI-H460
SF-268 = system: SF-268
CAKI-1 = system: CAKI-1
LOX IMVI = system: LOX IMVI
M14 = system: M14
U-251 = system: U-251
OVCAR-5 = system: OVCAR-5
OVCAR-3 = system: OVCAR-3
RXF 393 = system: RXF 393
MDA-N = system: MDA-N
UO-31 = system: UO-31
A498 = system: A498
SW-620 = system: SW-620
PC-3 = system: PC-3
SK-MEL-28 = system: SK-MEL-28
SR = system: SR
A549 = system: A549
T47D = system: T47D

CC(=O)N(C(C)=O)n1c(Cc2ccc(Cl)cc2)n[nH]c1=O
GI50 (DU-145): > 100 µM (inactive)
GI50 (MOLT-4): > 100 µM (inactive)
GI50 (NCI-H522): > 100 µM (inactive)
GI50 (ACHN): > 100 µM (inactive)
GI50 (SNB-75): > 81.8 µM (inactive)
GI50 (HOP-62): > 55.8 µM (inactive)
GI50 (SK-MEL-5): > 100 µM (inactive)
GI50 (MDA-MB-231): > 100 µM (inactive)
GI50 (MDA-MB-435): > 100 µM (inactive)
GI50 (SNB-19): > 100 µM (inactive)
GI50 (Malme-3M): > 52.7 µM (inactive)
GI50 (OVCAR-4): > 100 µM (inactive)
GI50 (HCC 2998): > 100 µM (inactive)
GI50 (RPMI-8226): > 100 µM (inactive)
GI50 (SK-OV-3): > 100 µM (inactive)
GI50 (HOP-92): > 100 µM (inactive)
GI50 (786-0): > 100 µM (inactive)
GI50 (TK-10): > 100 µM (inactive)
GI50 (MCF7): > 100 µM (inactive)
GI50 (SF-295): > 64.4 µM (inactive)
GI50 (Hs-578T): > 100 µM (inactive)
GI50 (BT-549): > 100 µM (inactive)
GI50 (HCT-15): > 100 µM
GI50 (COLO 205): > 100 µM (inactive)
GI50 (K562): > 100 µM (inactive)
GI50 (SF-539): > 100 µM (inactive)
GI50 (HCT-116): > 100 µM (inactive)
GI50 (NCI-H23): > 100 µM (inactive)
GI50 (EKVX): > 100 µM (inactive)
GI50 (SK-MEL-2): > 100 µM (inactive)
GI50 (CCRF-CEM): > 100 µM (inactive)
GI50 (UACC-62): > 100 µM (inactive)
GI50 (KM12): > 100 µM (inactive)
GI50 (IGROV-1): > 100 µM (inactive)
GI50 (OVCAR-8): > 100 µM (inactive)
GI50 (NCI/ADR-RES): > 100 µM (inactive)
GI50 (NCI-H226): > 100 µM (inactive)
GI50 (SN12C): > 100 µM (inactive)
GI50 (UACC-257): > 100 µM (inactive)
GI50 (HL-60): > 100 µM (inactive)
GI50 (HT-29): > 100 µM (inactive)
GI50 (NCI-H460): > 100 µM (inactive)
GI50 (SF-268): > 100 µM (inactive)
GI50 (CAKI-1): > 100 µM (inactive)
GI50 (LOX IMVI): > 88.5 µM (inactive)
GI50 (M14): > 100 µM (inactive)
GI50 (U-251): > 100 µM (inactive)
GI50 (OVCAR-5): > 100 µM (inactive)
GI50 (OVCAR-3): > 100 µM (inactive)
GI50 (RXF 393): 28.5 µM (inactive)
GI50 (MDA-N): > 100 µM (inactive)
GI50 (UO-31): > 100 µM (inactive)
GI50 (A498): > 100 µM (inactive)
GI50 (SW-620): > 100 µM (inactive)
GI50 (PC-3): > 100 µM (inactive)
GI50 (SK-MEL-28): > 100 µM (inactive)
GI50 (SR): > 100 µM (inactive)
GI50 (A549): > 100 µM (inactive)

CNc1nc(=S)[nH]c2sc3c(c12)CCCC3
GI50 (DU-145): > 75 µM (inactive)
GI50 (MOLT-4): > 75 µM (inactive)
GI50 (NCI-H522): > 75 µM (inactive)
GI50 (ACHN): > 75 µM (inactive)
GI50 (SNB-75): > 75 µM (inactive)
GI50 (HOP-62): > 75 µM (inactive)
GI50 (SK-MEL-5): > 75 µM (inactive)
GI50 (MDA-MB-231): > 75 µM (inactive)
GI50 (MDA-MB-435): > 75 µM (inactive)
GI50 (SNB-19): > 75 µM (inactive)
GI50 (Malme-3M): > 75 µM (inactive)
GI50 (OVCAR-4): > 75 µM (inactive)
GI50 (HCC 2998): > 75 µM (inactive)
GI50 (RPMI-8226): > 75 µM (inactive)
GI50 (786-0): > 75 µM (inactive)
GI50 (TK-10): > 75 µM (inactive)
GI50 (MCF7): > 75 µM (inactive)
GI50 (SF-295): > 75 µM (inactive)
GI50 (Hs-578T): > 75 µM (inactive)
GI50 (BT-549): > 75 µM (inactive)
GI50 (HCT-15): > 75 µM
GI50 (COLO 205): > 75 µM (inactive)
GI50 (K562): > 75 µM (inactive)
GI50 (HCT-116): > 75 µM (inactive)
GI50 (NCI-H23): > 75 µM (inactive)
GI50 (EKVX): 45.1 µM (inactive)
GI50 (SK-MEL-2): > 75 µM (inactive)
GI50 (UACC-62): > 75 µM (inactive)
GI50 (KM12): > 75 µM (inactive)
GI50 (IGROV-1): > 75 µM (inactive)
GI50 (OVCAR-8): > 75 µM (inactive)
GI50 (NCI/ADR-RES): > 75 µM (inactive)
GI50 (NCI-H226): > 75 µM (inactive)
GI50 (SN12C): > 75 µM (inactive)
GI50 (UACC-257): > 75 µM (inactive)
GI50 (HL-60): > 75 µM (inactive)
GI50 (HT-29): > 75 µM (inactive)
GI50 (SF-268): > 75 µM (inactive)
GI50 (CAKI-1): > 75 µM (inactive)
GI50 (LOX IMVI): > 75 µM (inactive)
GI50 (U-251): > 75 µM (inactive)
GI50 (T47D): > 75 µM (inactive)
GI50 (OVCAR-5): > 75 µM (inactive)
GI50 (OVCAR-3): > 75 µM (inactive)
GI50 (RXF 393): > 75 µM (inactive)
GI50 (UO-31): 67 µM (inactive)
GI50 (A498): > 75 µM (inactive)
GI50 (SW-620): > 75 µM (inactive)
GI50 (PC-3): > 75 µM (inactive)
GI50 (SK-MEL-28): > 75 µM (inactive)
GI50 (SR): > 75 µM (inactive)
